Like-named read-outs stand apart in the source and are kept apart here.

This data set relates to Spontaneously Hypertensive Rats. Briefly: Test 1: antihypertensive effects (systolic tail artery blood pressure) and heart rate in spontaneously hypertensive rats, oral. It counts as in vivo, rat (male, SHR). As to conditions: SHR, oral 1 mg/Kg; for change in vivo at 1 mg/kg: Rattus norvegicus; for Change (%) in heart rate: maximum value. The method, then: The antihypertensive effects of the certain compounds of this invention were studied in the following manner.
Among male, spontaneously hypertensive rats (SHRs) of 20 weeks of age or older and 350-430 g heavy all of which had developed hypertension, those having systolic blood pressures of 180 mmHg or higher were used in groups, each of which was constituted of 3-4 of the rats. […] Besides, heart rates were also measured simultaneously. The compounds were each dissolved or suspended in a 0.5% methylcellulose solution and then administered orally.
*All administered orally at a dosage of 1 mg/Kg except for the compounds
**Each percent change in heart rate is indicated by the corresponding

Setting [1] is: 1 hour, read-out: Antihypertensive effects, change (%) in blood pressure, 1 hour later.
Setting [2] is: 3 hours, read-out: Antihypertensive effects, change (%) in blood pressure, 3 hours later.
The mark [3] stands for this setting: 6 hours, read-out: Antihypertensive effects, change (%) in blood pressure, 6 hours later.
Where [4] appears, read: 24 hours, read-out: Antihypertensive effects, change (%) in blood pressure, 24 hours later.

Take `CCn1ccc2nc(N3CCN(c4nc(N)c5cc(OC)c(OC)cc5n4)CC3)ncc2c1=S` [Example 16]: the “Change (%) in heart rate” value is on record as “+7.5%”. Further, the change in vivo at 1 mg/kg under setting [1] was -2%. For the same compound, the change in vivo at 1 mg/kg under setting [2] is -8.9%. Further, under setting [3], the change in vivo at 1 mg/kg is -15.3%. In addition, under setting [4], the change in vivo at 1 mg/kg was -8.9%.

`CCOC(=O)c1cnc(N2CCN(c3nc(N)c4cc(OC)c(OC)cc4n3)CC2)nc1NC(C)=O` [Example 60]: the “Change (%) in heart rate” value is “+6.0%”. Also, the change in vivo at 1 mg/kg under setting [1] was -1.6%. For the same compound, the change in vivo at 1 mg/kg under setting [2] was -5.2%. Further, under setting [3], the change in vivo at 1 mg/kg was -8.8%. Moreover, the change in vivo at 1 mg/kg under setting [4] is -1%.

`COc1cc2nc(N3CCN(c4ncc(C(C)=O)c(C)n4)CC3)nc(N)c2cc1OC` [Example 36]: the “Change (%) in heart rate” value is recorded as “+9.5%”. Moreover, under setting [1], the change in vivo at 1 mg/kg is -14.6%. Also, the change in vivo at 1 mg/kg under setting [2] is -16.5%. In addition, the change in vivo at 1 mg/kg under setting [3] was -15%. Also, the change in vivo at 1 mg/kg under setting [4] was -2.4%.

As to `CCn1cc(C#N)c2nc(N3CCN(c4nc(N)c5cc(OC)c(OC)cc5n4)CC3)ncc2c1=O` [Example 13], the “Change (%) in heart rate” value is given as “+7.4%”. For the same compound, the change in vivo at 1 mg/kg under setting [1] was -1%. Also, the change in vivo at 1 mg/kg under setting [2] was -3.9%. The change in vivo at 1 mg/kg under setting [4] was -3.9%.

Regarding `CCNC(=O)c1cnc(N2CCN(c3nc(N)c4cc(OC)c(OC)cc4n3)CC2)nc1C(=O)NCC` [Example 85], the “Change (%) in heart rate” value was “+3.5%”. Also, the change in vivo at 1 mg/kg under setting [1] was -1.5%. The change in vivo at 1 mg/kg under setting [2] is -7.3%. Besides, the change in vivo at 1 mg/kg under setting [3] is -12.2%. Besides, under setting [4], the change in vivo at 1 mg/kg was -3.9%.

Turning to `CCN(CC)C(=O)c1cnc(N2CCN(c3nc(N)c4cc(OC)c(OC)cc4n3)CC2)nc1NC(C)C` [Example 78], the “Change (%) in heart rate” value was “+23.7%”. In addition, under setting [1], the change in vivo at 1 mg/kg is -23.4%. Besides, the change in vivo at 1 mg/kg under setting [2] was -33.7%. Under setting [3], the change in vivo at 1 mg/kg is -50.2%. For the same compound, the change in vivo at 1 mg/kg under setting [4] was -18.5%.

Consider `COc1cc2nc(N3CCN(c4ncc5c(n4)CN(C4CCCCC4)C5=O)CC3)nc(N)c2cc1OC` [Example 91], for which the “Change (%) in heart rate” value is recorded as “+8.2%”. Also, the change in vivo at 1 mg/kg under setting [1] is -4%. In addition, under setting [2], the change in vivo at 1 mg/kg was -8%. For the same compound, the change in vivo at 1 mg/kg under setting [3] was -12.9%. For the same compound, under setting [4], the change in vivo at 1 mg/kg was -2.5%.

On to `CCN(CC)C(=O)c1cnc(N2CCN(c3nc(N)c4cc(OC)c(OC)cc4n3)CC2)nc1C` [Example 42], for which the “Change (%) in heart rate” value was “+5.2%”. Further, the change in vivo at 1 mg/kg under setting [1] was -16.5%. Also, under setting [2], the change in vivo at 1 mg/kg is -19.5%. Also, the change in vivo at 1 mg/kg under setting [3] was -24%. Also, the change in vivo at 1 mg/kg under setting [4] is -7.5%.

As to `CCn1ccc2nc(N3CCCN(c4nc(N)c5cc(OC)c(OC)cc5n4)CC3)ncc2c1=O` [Example 82, 4-Amino-6,7-dimethoxy-2-(4-(5,6-dihydro-6-ethyl-5-oxopyrido[4,3-d]pyrimidin-2-yl)homopiperazino)quinazoline], the “Change (%) in heart rate” value is reported as “+5.8%”. In addition, the change in vivo at 1 mg/kg under setting [1] worked out at 0.5%. In addition, the change in vivo at 1 mg/kg under setting [2] is -6.9%. Besides, the change in vivo at 1 mg/kg under setting [3] is -8.8%. The change in vivo at 1 mg/kg under setting [4] is -6.4%.

For the compound `CCCCN1Cc2nc(N3CCN(c4nc(N)c5cc(OC)c(OC)cc5n4)CC3)ncc2C1=O` [Example 27], the “Change (%) in heart rate” value is “+8.3%”. Moreover, under setting [1], the change in vivo at 1 mg/kg is -5.4%. The change in vivo at 1 mg/kg under setting [2] was -17.6%. Under setting [3], the change in vivo at 1 mg/kg is -21%. Further, the change in vivo at 1 mg/kg under setting [4] was -2.4%.

On to `CCn1ccc2nc(N3CCN(c4nc(N)c5cc(OC)c(OC)c(OC)c5n4)CC3)ncc2c1=O.Cl` [Example 81, 4-Amino-6,7,8-trimethoxy-2-(4-(5,6-dihydro-6-ethyl-5-oxopyrido[4,3-d]pyrimidin-2-yl)piperazino)quinazoline hydrochloride], for which the “Change (%) in heart rate” value was “+3.8%”. In addition, the change in vivo at 1 mg/kg under setting [1] is -0.5%. Moreover, the change in vivo at 1 mg/kg under setting [2] was -7.3%. The change in vivo at 1 mg/kg under setting [3] was -12.1%. In addition, the change in vivo at 1 mg/kg under setting [4] is -8.7%.

These data come from patent publication US4734418A, “Quinazoline compounds and antihypertensives” (priority 1984, dated 1988).
